Laboratory results from PMC9530963, “A cathelicidin antimicrobial peptide from Hydrophis cyanocinctus inhibits Zika virus infection by downregulating expression of a viral entry factor” (The Journal of Biological Chemistry, 2022).

Columns and labels:
[1] = test system: AXL; test: AXL level in Vero cells (Western blot, immunofluorescence); format: cell-based, Chlorocebus aethiops
Experimental: Figure 3 Hc-CATH downregulates AXL in Vero cell.A, schematic diagram of B and C. B, Vero cells were seeded in 24-well plates (5 × 10^4 cells/well) and cultured in DMEM containing 2% FBS. Hc-CATH (1.25, 2.5, and 5 μM), AC5 (2.5 μM), LL-37 (2.5 μM), or same volume of PBS (peptide solvent) was added to cells. After culture at 37 °C for 6, 12, and 24 h, the levels of ZIKV entry factors, including AXL, TYRO3, and TIM-1, were tested by Western blot, respectively. C, Vero cells were seeded in 8-well cover slip chambers (5 × 10^4 cells/well) and cultured in DMEM containing 2% FBS. Hc-CATH (1.25, 2.5, and 5 μM), AC5 (2.5 μM), LL-37 (2.5 μM), or same volume of PBS (peptide solvent) was added to cells. After culture at 37 °C for 24 h, the level of AXL was tested by immunofluorescence staining. The scale bar represents 50 μm. D, schematic diagram of E. E, Vero cells were seeded in 24-well plates (5 × 10^4 cells/well) and cultured in DMEM containing 2% FBS. Hc-CATH (1.25, 2.5, and 5 μM), AC5 (2.5 μM), LL-37 (2.5 μM), or same volume of PBS (peptide solvent) was added to cells and incubated at 37 °C for 2 h. […] Ratio of AXL to β-actin was analyzed by ImageJ.
Vero cells were incubated with Hc-CATH (1.25, 2.5, and 5 μM), AC5 (2.5 μM), LL-37 (2.5 μM), or PBS (solvent of peptide). […] The levels of ZIKV entry factors, including AXL, TYRO3, and TIM-1, were detected by WB analysis. […]

[2] = test system: PGE2; test: PGE2 production in A549 cells (ELISA); format: cell-based, Homo sapiens; details: 24 h, cell supernatant
Experimental: Figure 6 Hc-CATH downregulates AXL via inhibiting COX-2/PGE2/AC/PKA pathway.A, effect of Hc-CATH on COX-2 protein level. A549 cells were incubated with Hc-CATH (1.25, 2.5, or 5 μM) or PBS (solvent of Hc-CATH) at 37 °C for 24 h, COX-2 protein level was examined by Western blot (upper panel) and analyzed by ImageJ (lower panel). B, effect of Hc-CATH on the enzymatic activity of COX-2. Hc-CATH (1.25, 2.5, 5, and 10 μM) or PBS was incubated with COX-2. After incubation at 37 °C for 10 min, the enzymatic activity of COX-2 was detected by enzyme activity inhibitor screening kit. Celecoxib (COX-2 inhibitor, 100 nM) was used as positive control. C, effect of Hc-CATH on PGE2 production. A549 cells were incubated with Hc-CATH (5 μM) at 37 °C. After incubation for 24 h, the level of PGE2 in the cell supernatant was detected by ELISA. D and E, effect of AC (D) and PKA (E) on Hc-CATH-induced AXL downregulation. A549 cells were incubated with forskolin (FSK, agonist of AC, 10 μM) or H89 (inhibitor of PKA, 5 μM) at 37 °C. After incubation for 1 h, the culture media were removed, cells were washed three times with PBS, and fresh culture media were added to cells in the presence of Hc-CATH (5 μM). After incubation for 24 h, AXL protein level was examined by Western blot (upper panel of D and E) and analyzed by ImageJ (lower panel of D and E). ns, not significant, ∗∗p < 0.01, and ∗∗∗p < 0.001. […]

KFFKRLLKSVRRAVKKFRKKPRLIGLSTLL [Hc-CATH, cathelicidin antimicrobial peptide identified from the sea snake Hydrophis cyanocinctus]
level of AXL in Vero cells ([1]; 1.25, 2.5, and 5 μM, 24 h, confirmed by immunofluorescence, relative to PBS): reduced the level of AXL | level of AXL in Vero cells upon ZIKV infection ([1]; peptide 2 h, then ZIKV MOI = 1, 24 h post Hc-CATH addition): decreased the level of AXL | synthesis of PGE2 [2]: significantly reduced the synthesis of PGE2
